Experimental data published in patent US20250051263A1, “NOVEL IONIZABLE LIPIDS AND LIPID NANOPARTICLES AND METHODS OF USING THE SAME” (Sail Biomedicines, Inc., priority 2021, published 2025).

Tests used:
[1] = LNP size and polydispersity, Zetasizer Ultra; format: physicochemical
Summary of the method: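 Lipids dissolved in ethanol were combined with mRNA solution at a 1:3 volume ratio on a NanoAssemblr Ignite at 9 mL/min total flow. Particles were dialyzed in Slide-A-Lyzer G2 cassettes (10 k MWCO) against 1×PBS, then overnight at 4° C., concentrated with Amicon Ultra filters (100 k MWCO), and measured for size and polydispersity on a Zetasizer Ultra.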

[2] = mRNA encapsulation efficiency, Quant-iT RiboGreen RNA Assay; format: physicochemical
Balb/c mice = assay: In-vivo bioluminescent imaging after IV injection of Fluc mRNA LNP; settings: for Bioluminescence (IV) Liver / Bioluminescence (IV) Lung / Bioluminescence (IV) Spleen / Bioluminescence (IV) Whole Body / Spleen: Liver Ratio: Example 5 LNP (DOPE 35:16:46.5:2.5), 5 μg FLUC + 5 μg EPO; for Bioluminescence (IV) Liver / Bioluminescence (IV) Lung / Bioluminescence (IV) Spleen / Bioluminescence (IV) Whole Body / Bioluminescence Liver / Bioluminescence Lung / Bioluminescence Spleen: 4-6 hours post-dose; for Bioluminescence (IV) Liver / Bioluminescence (IV) Lung / Bioluminescence (IV) Spleen / Bioluminescence (IV) Whole Body / Spleen: Liver Ratio / Bioluminescence Liver / Bioluminescence Lung / Bioluminescence Spleen: IV; for Spleen: Liver Ratio: ratio of bioluminescence; for Bioluminescence Liver / Bioluminescence Lung / Bioluminescence Spleen: 5 ug Fluc+5 ug EPO mRNA; for bioluminescence in the liver, spleen, and lung: used as part of an ionizable lipid scaffold (LNP), Table 1
[3] = Example 5 LNP lipid:DOPE:Plant Cholesterol:DMPE-PEG2k 35:16:46.5:2.5, FLUC/EPO 1:1 mRNA, N:P 6:1
[4] = LNP ionizable lipid:DSPC:Plant Chol.:DMPE-PEG2k 50:10:38.5:1.5
[5] = LNP lipid:DSPC:Plant Chol.:DMPE-PEG2k 50:10:38.5:1.5
[6] = LNP ionizable lipid:DOPE:Plant Chol.:DMPE-PEG2k 35:16:46.5:2.5 (Table 1)
[7] = LNP lipid:DOPE:Plant Chol.:DMPE-PEG2k 35:16:46.5:2.5 (Table 1)

Structure (SMILES)	PDI [1, 3]	Size (nm) [1, 3] [nm]	% EE [2, 3] [%]	Bioluminescence (IV) Liver (Balb/c mice)	Bioluminescence (IV) Lung (Balb/c mice)	Bioluminescence (IV) Spleen (Balb/c mice)	Bioluminescence (IV) Whole Body (Balb/c mice)	Spleen: Liver Ratio (Balb/c mice)	PDI [1, 4]	Size (nm) [1, 4] [nm]	Bioluminescence Liver (Balb/c mice; [5])	Bioluminescence Lung (Balb/c mice; [5])	Bioluminescence Spleen (Balb/c mice; [5])	bioluminescence in the liver, spleen, and lung (Balb/c mice)	PDI [1, 6]	Size (nm) [1, 6] [nm]	% EE [2, 6] [%]	Bioluminescence Liver (Balb/c mice; [7])	Bioluminescence Lung (Balb/c mice; [7])	Bioluminescence Spleen (Balb/c mice; [7])
CCCCCCCCCC(C)COC(=O)CCCCCN(CCCCCCCC(=O)OC(CCCCCCCC)CCCCCCCC)CCNC(=O)CCC(=O)NCCN(CCCCCCCC(=O)OC(CCCCCCCC)CCCCCCCC)CCCCCC(=O)OCC(C)CCCCCCCCC (stereo not drawn) [Compound 2355, 1-octylnonyl 8-[[6-(2-methylundecoxy)-6-oxo-hexyl]-[2-[[4-[2-[[6-(2-methylundecoxy)-6-oxo-hexyl]-[8-(1-octylnonoxy)-8-oxo-octyl]amino]ethylamino]-4-oxo-butanoyl]amino]ethyl]amino]octanoate]	0.07	74.7	94.9	1.8E+07	5.9E+03	4.6E+05	1.4E+08	0.026	–	–	–	–	–	–	–	–	–	–	–	–
CCCCCCCCCCCOC(=O)CCCCCN(CCCCCCCC(=O)OC(CCCCCCCC)CCCCCCCC)CCNC(=O)CC(=O)NCCN(CCCCCCCC(=O)OC(CCCCCCCC)CCCCCCCC)CCCCCC(=O)OCCCCCCCCCCC [Compound 2220, 1-octylnonyl 8-[2-[[3-[2-[[8-(1-octylnonoxy)-8-oxo-octyl]-(6-oxo-6-undecoxy-hexyl)amino]ethylamino]-3-oxo-propanoyl]amino]ethyl-(6-oxo-6-undecoxy-hexyl)amino]octanoate]	0.17	71.3	94.4	1.1E+07	1.8E+03	7.5E+04	4.3E+07	0.004	0.03	89.17	1.03E+07	7.79E+03	2.09E+06	improved bioluminescence	–	–	–	–	–	–
CCCCCCCCC(CCCCCCCC)OC(=O)CCCCCCCN(CCCCCCCC(=O)OC(CCCCCCCC)CCCCCCCC)CCNC(=O)CCCC(=O)NCCN(CCCCCCCC(=O)OC(CCCCCCCC)CCCCCCCC)CCCCCCCC(=O)OC(CCCCCCCC)CCCCCCCC [Compound 2320, 1-octylnonyl 8-[2-[[5-[2-[bis[8-(1-octylnonoxy)-8-oxo-octyl]amino]ethylamino]-5-oxo-pentanoyl]amino]ethyl-[8-(1-octylnonoxy)-8-oxo-octyl]amino]octanoate]	0.15	126.1	93.4	8.1E+07	4.0E+03	4.4E+05	9.5E+08	0.007	–	–	–	–	–	–	–	–	–	–	–	–
CCCCCCCCCCCOC(=O)CCCCCN(CCCCCCCC(=O)OC(CCCCCCCC)CCCCCCCC)CCCNC(=O)CN(CC(=O)NCCCN(CCCCCCCC(=O)OC(CCCCCCCC)CCCCCCCC)CCCCCC(=O)OCCCCCCCCCCC)C(=O)CCN1CCCC1 [Compound 2353, 1-octylnonyl8-[3-[[2-[[2-[3-[[8-(1-octylnonoxy)-8-oxo-octyl]-(6-oxo-6-undecoxy-hexyl)amino]propylamino]-2-oxo-ethyl]-(3-pyrrolidin-1-ylpropanoyl)amino]acetyl]amino]propyl-(6-oxo-6-undecoxy-hexyl)amino]octanoate]	0.14	85.2	97.0	9.7E+03	3.2E+04	1.3E+05	7.8E+04	7.617	–	–	–	–	–	–	–	–	–	–	–	–
CCCCCCCCCCCOC(=O)CCCCCN(CCCCCCCC(=O)OC(CCCCCCCC)CCCCCCCC)CCN1CCN(CCN(CCCCCCCC(=O)OC(CCCCCCCC)CCCCCCCC)CCCCCC(=O)OCCCCCCCCCCC)CC1 [Compound 2248, 1-octylnonyl 8-[2-[4-[2-[[8-(1-octylnonoxy)-8-oxo-octyl]-(6-oxo-6-undecoxy-hexyl)amino]ethyl]piperazin-1-yl]ethyl-(6-oxo-6-undecoxy-hexyl)amino]octanoate]	0.10	83.5	95.0	5.6E+07	2.7E+04	4.5E+05	3.5E+08	0.008	–	–	–	–	–	–	–	–	–	–	–	–
CCCCCCCCCOC(=O)CCCCCCCN(CCCCCCCC(=O)OC(CCCCCCCC)CCCCCCCC)CCNC(=O)CCC(=O)NCCN(CCCCCCCC(=O)OCCCCCCCCC)CCCCCCCC(=O)OC(CCCCCCCC)CCCCCCCC [Compound 2213, nonyl 8-[2-[[4-[2-[(8-nonoxy-8-oxo-octyl)-[8-(1-octylnonoxy)-8-oxo-octyl]amino]ethylamino]-4-oxo-butanoyl]amino]ethyl-[8-(1-octylnonoxy)-8-oxo-octyl]amino]octanoate]	0.10	63.9	92.5	2.2E+06	3.7E+03	3.5E+05	1.0E+07	0.215	–	–	–	–	–	–	–	–	–	–	–	–
CCCCCCCCCCCOC(=O)CCCCCN(CCCCCCCC(=O)OC(CCCCCCCC)CCCCCCCC)CCNC(=O)/C=C/C(=O)NCCN(CCCCCCCC(=O)OC(CCCCCCCC)CCCCCCCC)CCCCCC(=O)OCCCCCCCCCCC [Compound 2252, 1-octylnonyl 8-[2-[[(E)-4-[2-[[8-(1-octylnonoxy)-8-oxo-octyl]-(6-oxo-6-undecoxy-hexyl)amino]ethylamino]-4-oxo-but-2enoyl]amino]ethyl-(6-oxo-6-undecoxy-hexyl)amino]octanoate]	0.13	70.0	94.5	1.5E+07	3.3E+03	2.3E+05	7.2E+07	0.015	0.05	126.40	2.41E+05	1.03E+04	4.69E+05	improved bioluminescence	0.13	69.98	94.5	1.52E+07	3.27E+03	2.32E+05
CCCCCCCCCCCNC(=O)CCCCCN(CCCCCCCC(=O)NC(CCCCCCCC)CCCCCCCC)CCNC(=O)CCC(=O)NCCN(CCCCCCCC(=O)NC(CCCCCCCC)CCCCCCCC)CCCCCC(=O)NCCCCCCCCCCC [Compound 2282, N,N′-bis[2-[[8-(1-octylnonylamino)-8-oxo-octyl]-[6-oxo-6-(undecylamino)hexyl]amino]ethyl]butanediamide]	0.16	73.1	94.7	5.7E+07	3.8E+04	5.4E+06	7.7E+08	0.092	–	–	–	–	–	–	–	–	–	–	–	–
CCCCCCCCCC(=O)OCCCCCCCN(CCCCCCCC(=O)OC(CCCCCCCC)CCCCCCCC)CCNC(=O)CCC(=O)NCCN(CCCCCCCOC(=O)CCCCCCCCC)CCCCCCCC(=O)OC(CCCCCCCC)CCCCCCCC [Compound 2272, 7-[2-[[4-[2-[7-decanoyloxyheptyl-[8-(1-octylnonoxy)-8-oxo-octyl]amino]ethylamino]-4-oxo-butanoyl]amino]ethyl-[8-(1-octylnonoxy)-8-oxo-octyl]amino]heptyl decanoate]	0.07	68.7	92.6	1.8E+07	1.5E+04	1.0E+06	1.3E+08	0.055	–	–	–	–	–	–	–	–	–	–	–	–
